Format in all cases: cell-based
One assay has as its system HIV-1LAI wildtype. Briefly: alamarBlue Viability Assay with HIV-1LAI-infected MT4 cells. The following applies: Human immunodeficiency virus 1, 10% FBS. As for the experimental part:
For starting a 96-well MTP, 3 million PBLs are pelleted, suspended in 1 ml RPMI 1640 medium/10% FBS/2 mM L-glutamine/1% Pen/Strep and incubated for 2 hours at 37° C. with a suitable quantity of the relevant HIV-1LAI (NIH AIDS Research & Reference Reagent Program, Germantown, USA) (pellet infection). Non-adsorbed viruses are then washed out, and the infected cells pelleted again and suspended in 18 ml RPMI 1640 medium/10% FBS/2 mM L-glutamine/1% Pen/Strep/Interleukin-2 (40 U/ml). From this, 180 μl per well is pipetted into a 96-well MTP to 20 μl of test substance at a suitable level of dilution. Alternatively, the HIV is added after preparation of the substance dilutes in the MTP together with the cells, and is not washed out (supernatant infection). In order to avoid edge effects, the edge wells of the MTP are not used for substance dilutions. The second vertical row of the MTP contains only infected cells (virus control) and the eleventh vertical row only non-infected cells (cell control), each in RPMI 1640 medium/10% FBS/2 mM L-glutamine/1% Pen/Strep/Interleukin-2 (40 U/ml). The remaining wells of the MTP contain the compounds in accordance with the invention in various concentrations, starting from the third vertical row, from which the test substances are diluted in 3-step sequences up to the tenth vertical row by a factor of 3^7. The test substances are dissolved in DMSO; the final DMSO concentration in the test preparation is 1%. The test samples are incubated for 5 days at 37° C./5% CO2. After 5 to 7 days, 50 μl of cell-free supernatant is removed from each well to determine its p24 content using p24 ELISA (HIV-1 p24CA Antigen Capture Assay Kit, NCI-Frederick Cancer Research and Development Center, Frederick, USA). From the resulting values of the photometric analysis (450/620 nm), the EC50 values of the test substances are determined from the resulting dose-response curves using the Prism4 software (GraphPad, San Diego, Calif.) as the concentration of treated infected cells, where the p24 quantity is 50% of the untreated infected cells.
Alternatively, MT4 cells are used in place of PBLs for testing the test substances. HIV-1LAI-infected MT4 cells (MOI 0.01, supernatant infection) are incubated in accordance with the procedure described above in RPMI 1640 medium using 2% or 10% FKS/2 mM L-glutamine/1% Pen/Strep in the presence of the test substances for 5 days at 37° C./5% CO2 (10 μl diluted substance and 90 μl cells/virus per well). 10 μl alamarBlue (Invitrogen, Karlsruhe, Germany) is then added per well and the MTPs are incubated for 3 hours at 37° C. before fluorimetric evaluation is performed (544/590 nm). Using quattroWorkflow software (Quattroresearch, Martinsried, Germany), the EC50 values of the test substances are determined from the resulting dose-response curves as the concentration of treated infected cells in which the fluorescence is 50% of that of the untreated, non-infected cells.

The subject of another assay is HIV-1NL4-3 K103N-Y181C. The assay can be described thus: Luminescence Reduction Assay, luciferase reporter virus with resistance mutations in MT4 cells. To be noted: Human immunodeficiency virus 1, MT4, read-out: EC50 (μM) MT4 cells HIV-1NL4-3 K103N-Y181C 2% FBS. The source says: (§1) For this assay, HIV-1NL4-3 reporter viruses are used which carry the luciferase164 gene (lu164) in place of the nef gene. The viruses are generated by transfection of 293T cells with the corresponding proviral pNL4-3 plasmid (Lipofectamine Reagent, Invitrogen, Karlsruhe, Germany). Starting from the proviral plasmid DNA, viruses with defined resistance mutations (single or combined) are produced in the reverse transcriptase gene using the “QuikChange II XL Site-Directed Mutagenesis Kit” (Stratagene, Cedar Creek, Tex., USA). Resistance mutations include, among others: L74V, A98G, A98S, L100I, K101E, K103N, V106A, V106I, V106M, V108I, V108A, E138K, V179I, V179D, V179E, Y181C, Y181I, Y188L, G190A, G1905, H221Y, P225H, F227C, F227L, F227V, M230I, M230L, L234I, P236L, N348I, T369A, T369I, T369V. MT4 cells infected with these reporter viruses (NIH AIDS Research and Reference Reagent Program) secrete luciferase into the medium, which enables the luminometric quantification of the virus replication.
(§2) For starting a 96-well MTP, 3 million MT4 cells are pelleted, suspended in 1 ml RPMI 1640 medium without phenol red (Invitrogen, Karlsruhe, Germany)/10% FBS/2 mM L-glutamine/1% Pen/Strep (Invitrogen, Karlsruhe, Germany), and incubated for 2 hours at 37° C. with a suitable quantity of the relevant HIV-1NL4-3 reporter virus (pellet infection). Non-adsorbed viruses are then washed out, and the infected cells are pelleted again and suspended in 8 ml RPMI 1640 medium without phenol red/2% or 10% FBS/2 mM L-glutamine/1% Pen/Strep. From this, 90 μl per well is pipetted into a white 96-well MTP to 10 μl of test substance at a suitable level of dilution. In order to avoid edge effects, the edge wells of the MTP are not used for substance dilutions. The second vertical row of the MTP contains only infected cells (virus control) and the eleventh vertical row only non-infected cells (cell control), each in RPMI 1640 medium without phenol red/2% or 10% FBS/2 mM L-glutamine/1% Pen/Strep. The remaining wells of the MTP contain the compounds in accordance with the invention in various concentrations, starting from the third vertical row, from which the test substances are diluted in 3-step sequences up to the tenth vertical row by a factor of 3^7. The test substances are dissolved in DMSO; the final DMSO concentration in the test formulation is 1%.
For orientation: Reporter assays use an easily measured gene product as a stand-in for the process of interest.

For the next assay, the system named is HIV-1NL4-3 wildtype. The assay can be described thus: Luminescence Reduction Assay, luciferase reporter virus in MT4 cells. The following applies: Human immunodeficiency virus 1, MT4, read-out: EC50 (μM) MT4 cells HIV-1NL4-3 wildtype 2% FBS.
Excerpt: as §1, §2

The term EC50 denotes the concentration at which the effect is half-maximal.

The structures appear in SMILES notation.

In the case of `N#Cc1cc(-n2nc(-c3cccc4c3CNC4=O)cc2-c2cc(F)cc(Cl)c2)ccc1F` [Example 25], the EC50 with HIV-1LAI wildtype came to 0.0107 µM; in the assay with HIV-1NL4-3 K103N-Y181C it was 0.0112 µM; in the assay with HIV-1NL4-3 wildtype, 0.0009 µM.

For the molecule `COc1cccc(-n2nc(-c3nccc4c3CNC4=O)cc2-c2ccnc(Cl)c2)c1` [Example 39], the half-maximal effective concentration (EC50) in the assay with HIV-1LAI wildtype stood at 0.0486 µM; in the assay with HIV-1NL4-3 K103N-Y181C, 0.0692 µM; in the assay with HIV-1NL4-3 wildtype it was 0.0075 µM.

In the case of `O=C1NCc2c1ccnc2-c1cc(-c2cc(Cl)cc(OC(F)(F)F)c2)n(-c2ccc(F)c(Cl)c2)n1` [Example 9, 4-{1-(3-chloro-4-fluorophenyl)-5-[3-chloro-5-(trifluoromethoxy)phenyl]-1H-pyrazole-3-yl}-2,3-dihydro-1H-pyrrolo[3,4-c]pyridine-1-one], the figures for the EC50 in the assay on HIV-1LAI wildtype, with HIV-1NL4-3 K103N-Y181C and with HIV-1NL4-3 wildtype were 0.0768 µM, 0.0176 µM and 0.0128 µM, respectively.

`O=C1NCc2c1ccnc2-c1cc(-c2cc(Br)cc(OC(F)(F)F)c2)n(-c2ccc(F)c(Cl)c2)n1` [Example 12, 4-{5-[3-bromo-5-(trifluoromethoxy)phenyl]-1-(3-chloro-4-fluorophenyl)-1H-pyrazole-3-yl}-2,3-dihydro-1H-pyrrolo[3,4-c]pyridine-1-one]: the 50% effective concentration (EC50) with HIV-1LAI wildtype worked out at 0.0974 µM; with HIV-1NL4-3 K103N-Y181C it was 0.012 µM; with HIV-1NL4-3 wildtype, 0.0089 µM.

On to `O=C1NCc2c1ccnc2-c1cc(-c2cc(F)cc(Cl)c2)n(-c2cccc(Cl)c2)n1` [Example 26], for which the results for the 50% effective concentration (EC50) with HIV-1LAI wildtype, in the assay with HIV-1NL4-3 K103N-Y181C and in the assay on HIV-1NL4-3 wildtype were 0.0153 µM, 0.0208 µM and 0.0017 µM, respectively.

In the case of `O=C1NCc2c1cccc2-c1cc(-c2cc(Cl)cc(OC(F)F)c2)n(-c2cccnc2)n1` [Example 18, 4-{5-[3-chloro-5-(difluoromethoxy)phenyl]-1-(pyridine-3-yl)-1H-pyrazole-3-yl}-2,3-dihydro-1H-isoindole-1-one], the values for the concentration for a half-maximal effect (EC50) with HIV-1LAI wildtype, in the assay with HIV-1NL4-3 K103N-Y181C and in the assay with HIV-1NL4-3 wildtype were 0.0177 µM, 0.013 µM and 0.0056 µM, respectively.

On to `O=C1NCc2c1cccc2-c1cc(-c2cccc(Cl)c2)n(-c2cccc(C(F)(F)F)c2)n1` [Example 38], for which the EC50 in the assay with HIV-1LAI wildtype was determined as 0.948 µM; in the assay with HIV-1NL4-3 K103N-Y181C it was 1.18 µM; with HIV-1NL4-3 wildtype, 0.18 µM.

For the molecule `O=C1NCc2c1cccc2-c1cc(-c2cc(F)cc(Cl)c2)n(-c2cccc(Cl)c2)n1` [Example 41], the EC50 with HIV-1LAI wildtype was 0.0807 µM; in the assay with HIV-1NL4-3 K103N-Y181C, 0.152 µM; in the assay on HIV-1NL4-3 wildtype, 0.0112 µM.

In the case of `O=C1NCc2c1ncnc2-c1cc(-c2cc(Cl)cc(OC(F)(F)F)c2)n(-c2cccnc2)n1` [Example 45], the EC50 with HIV-1LAI wildtype was 0.0045 µM; with HIV-1NL4-3 K103N-Y181C, 0.0007 µM; in the assay with HIV-1NL4-3 wildtype it was 0.0005 µM.

As for `O=C1NCc2c1ccnc2-c1cc(-c2cccc(OC(F)F)c2)n(-c2ccc(F)c(Cl)c2)n1` [Example 42], the results for the concentration giving a half-maximal response (EC50) in the assay on HIV-1LAI wildtype, with HIV-1NL4-3 K103N-Y181C and in the assay with HIV-1NL4-3 wildtype were 0.0717 µM, 0.0194 µM and 0.0098 µM, respectively.

For the molecule `O=C1NCc2c1ccnc2-c1cc(-c2cccc(F)c2F)n(-c2ccc(F)c(Cl)c2)n1` [Example 33], the values for the EC50 with HIV-1LAI wildtype, with HIV-1NL4-3 K103N-Y181C and with HIV-1NL4-3 wildtype were 0.0641 µM, 0.061 µM and 0.0227 µM, respectively.

For `O=C1NCc2c1ccnc2-c1cc(-c2cc(Cl)cc(OC(F)F)c2)n(-c2cccnc2)n1` [Example 16, 4-{5-[3-chloro-5-(difluoromethoxy)phenyl]-1-(pyridine-3-yl)-1H-pyrazole-3-yl}-2,3-dihydro-1H-pyrrolo[3,4-c]pyridine-1-one], the figures for the EC50 with HIV-1LAI wildtype, with HIV-1NL4-3 K103N-Y181C and with HIV-1NL4-3 wildtype were 0.0023 µM, 0.0026 µM and 0.0005 µM, respectively.

Take `O=C1NCc2c1ccnc2-c1cc(-c2cc(Cl)cc(C(F)(F)F)c2)n(-c2ccc(F)c(Cl)c2)n1` [Example 30]: the EC50 with HIV-1LAI wildtype turned out to be 0.0881 µM; in the assay with HIV-1NL4-3 K103N-Y181C, 0.011 µM; in the assay on HIV-1NL4-3 wildtype, 0.0075 µM.

As to `O=C1NCc2c1cccc2-c1cc(-c2cc(Cl)cc(OC(F)(F)F)c2)n(-c2cccnc2)n1` [Example 11, 4-{5-[3-chloro-5-(trifluoromethoxy)phenyl]-1-(pyridine-3-yl)-1H-pyrazole-3-yl}-2,3-dihydro-1H-isoindole-1-one], the 50% effective concentration (EC50) in the assay on HIV-1LAI wildtype was found to be 0.0663 µM; in the assay with HIV-1NL4-3 K103N-Y181C it was 0.024 µM; in the assay on HIV-1NL4-3 wildtype, 0.0091 µM.

`O=C1NCc2c1cccc2-c1cc(-c2cccc(F)c2F)n(-c2ccc(F)c(Cl)c2)n1` [Example 34]: the EC50 with HIV-1LAI wildtype was 0.75 µM; with HIV-1NL4-3 K103N-Y181C, 0.458 µM; in the assay on HIV-1NL4-3 wildtype, 0.131 µM.

For `Cc1cc(F)cc(-c2cc(-c3cccc4c3CNC4=O)nn2-c2ccc(F)c(Cl)c2)c1` [Example 23], the results for the EC50 in the assay on HIV-1LAI wildtype, in the assay with HIV-1NL4-3 K103N-Y181C and in the assay on HIV-1NL4-3 wildtype were 0.0983 µM, 0.0565 µM and 0.015 µM, respectively.

Consider `O=C1NCc2c1cccc2-c1cc(-c2cc(Br)cc(OC(F)F)c2)n(-c2cccnc2)n1` [Example 21, 4-{5-[3-bromo-5-(difluoromethoxy)phenyl]-1-(pyridine-3-yl)-1H-pyrazole-3-yl}-2,3-dihydro-1H-isoindole-1-one], for which the EC50 in the assay with HIV-1LAI wildtype came to 0.0325 µM; with HIV-1NL4-3 K103N-Y181C it was 0.0283 µM; with HIV-1NL4-3 wildtype it was 0.0063 µM.

As to `O=C1NCc2c1cccc2-c1cc(-c2ccc(F)c(OC(F)(F)F)c2)n(-c2cccc(Cl)c2)n1` [Example 44], the EC50 was determined as 1.91 µM in the assay with HIV-1LAI wildtype, 0.458 µM in the assay on HIV-1NL4-3 K103N-Y181C and 0.533 µM in the assay on HIV-1NL4-3 wildtype.

On to `N#Cc1cc(-n2nc(-c3nccc4c3CNC4=O)cc2-c2cc(F)cc(Cl)c2)ccc1F` [Example 24], for which the figures for the concentration for a half-maximal effect (EC50) with HIV-1LAI wildtype, in the assay on HIV-1NL4-3 K103N-Y181C and in the assay on HIV-1NL4-3 wildtype were 0.0006 µM, 0.0003 µM and 0.0002 µM, respectively.

As to `O=C1NCc2c1cccc2-c1cc(-c2cncc(Cl)c2)n(-c2ccc(F)c(Cl)c2)n1` [Example 32], the EC50 turned out to be 0.0273 µM in the assay with HIV-1LAI wildtype, 0.0383 µM in the assay with HIV-1NL4-3 K103N-Y181C and 0.0069 µM in the assay on HIV-1NL4-3 wildtype.

Take `O=C1NCc2c1ccnc2-c1cc(-c2cc(Br)cc(OC(F)F)c2)n(-c2cccnc2)n1` [Example 19, 4-{5-[3-bromo-5-(difluoromethoxy)phenyl]-1-(pyridine-3-yl)-1H-pyrazole-3-yl}-2,3-dihydro-1H-pyrrolo[3,4-c]pyridine-1-one]: the EC50 came to 0.0028 µM in the assay with HIV-1LAI wildtype, 0.0019 µM in the assay on HIV-1NL4-3 K103N-Y181C and 0.0003 µM in the assay on HIV-1NL4-3 wildtype.
